Results from publication PMC3632306 (Journal of medicinal chemistry, 2013).
Entries after “also recorded” stand apart in the source; their conditions may differ.

Key:
in vivo = conditions: mouse, ip, 10 mg/kg
U87-MG cells = test: U87-MG cell viability; format: cell-based, human; conditions: concentrations up to 10 μM, relative to DMSO, 10% FBS
PLD2 = PLD2 (Homo sapiens, UniProt O14939); conditions: purified PLD proteins; data comparable to cell-based assay
[1] = test system: U87-MG glioblastoma cells; test: Invasive migration in U87-MG cells; format: cell-based, human; conditions: for Invasive migration in U87-MG cells: 100 nM to 10 μM, 48 hours
PLD1 = biological target: T1, PLD1 (Homo sapiens, UniProt Q13393)
T1 sequence (Q13393 1-1074): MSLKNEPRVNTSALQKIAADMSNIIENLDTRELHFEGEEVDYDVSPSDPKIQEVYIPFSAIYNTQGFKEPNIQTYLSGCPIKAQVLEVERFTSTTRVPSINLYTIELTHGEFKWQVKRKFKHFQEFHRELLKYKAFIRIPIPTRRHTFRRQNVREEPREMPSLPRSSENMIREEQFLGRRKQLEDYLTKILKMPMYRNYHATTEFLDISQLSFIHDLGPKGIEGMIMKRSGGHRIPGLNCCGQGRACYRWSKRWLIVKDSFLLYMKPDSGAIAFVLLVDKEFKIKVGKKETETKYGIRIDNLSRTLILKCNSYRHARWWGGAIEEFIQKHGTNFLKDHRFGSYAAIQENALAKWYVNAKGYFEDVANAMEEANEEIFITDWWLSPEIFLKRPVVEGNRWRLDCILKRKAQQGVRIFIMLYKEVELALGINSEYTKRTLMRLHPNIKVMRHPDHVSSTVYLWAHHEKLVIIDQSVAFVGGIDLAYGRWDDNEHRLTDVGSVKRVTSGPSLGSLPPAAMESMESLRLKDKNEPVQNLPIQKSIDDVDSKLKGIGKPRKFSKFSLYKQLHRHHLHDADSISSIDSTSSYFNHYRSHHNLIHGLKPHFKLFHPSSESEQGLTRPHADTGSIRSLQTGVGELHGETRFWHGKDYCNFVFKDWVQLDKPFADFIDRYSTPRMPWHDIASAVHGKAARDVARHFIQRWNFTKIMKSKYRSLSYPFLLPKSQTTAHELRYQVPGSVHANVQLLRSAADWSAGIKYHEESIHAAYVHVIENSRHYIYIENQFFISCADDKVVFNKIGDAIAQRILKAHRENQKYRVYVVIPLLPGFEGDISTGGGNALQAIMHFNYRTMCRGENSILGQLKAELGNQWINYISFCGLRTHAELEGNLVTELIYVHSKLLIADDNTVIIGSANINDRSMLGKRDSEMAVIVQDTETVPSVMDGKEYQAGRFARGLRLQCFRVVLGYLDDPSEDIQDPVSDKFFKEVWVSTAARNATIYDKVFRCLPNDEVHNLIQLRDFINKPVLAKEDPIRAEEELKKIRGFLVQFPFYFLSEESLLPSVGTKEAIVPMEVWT

[2] = not given; remark: listed apart in the source

Chain of PLD2 (O14939 whole entry, species assumed): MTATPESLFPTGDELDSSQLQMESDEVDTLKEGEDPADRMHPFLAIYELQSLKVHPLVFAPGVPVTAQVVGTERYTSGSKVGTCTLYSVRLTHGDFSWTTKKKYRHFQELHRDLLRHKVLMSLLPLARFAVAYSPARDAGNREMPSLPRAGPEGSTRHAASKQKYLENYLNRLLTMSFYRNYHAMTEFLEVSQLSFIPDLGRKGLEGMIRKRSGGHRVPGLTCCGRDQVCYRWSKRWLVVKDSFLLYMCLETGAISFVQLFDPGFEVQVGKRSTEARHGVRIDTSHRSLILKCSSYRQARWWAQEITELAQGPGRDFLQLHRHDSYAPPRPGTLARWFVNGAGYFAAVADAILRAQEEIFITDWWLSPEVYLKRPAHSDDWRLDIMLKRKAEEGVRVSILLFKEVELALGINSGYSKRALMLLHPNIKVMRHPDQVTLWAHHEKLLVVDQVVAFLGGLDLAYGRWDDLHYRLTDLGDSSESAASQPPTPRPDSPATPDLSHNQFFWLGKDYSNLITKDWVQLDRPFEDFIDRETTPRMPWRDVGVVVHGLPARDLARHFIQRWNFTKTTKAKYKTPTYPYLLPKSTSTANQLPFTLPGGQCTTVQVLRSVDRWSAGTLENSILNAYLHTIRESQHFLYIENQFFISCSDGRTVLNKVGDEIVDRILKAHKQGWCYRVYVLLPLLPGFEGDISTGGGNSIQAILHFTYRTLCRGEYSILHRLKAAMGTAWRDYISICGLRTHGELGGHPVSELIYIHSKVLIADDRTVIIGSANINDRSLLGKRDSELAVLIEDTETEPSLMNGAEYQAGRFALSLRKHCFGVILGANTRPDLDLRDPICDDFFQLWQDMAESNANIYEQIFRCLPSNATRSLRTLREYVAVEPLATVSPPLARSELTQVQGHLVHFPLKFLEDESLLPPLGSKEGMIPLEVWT

| SMILES | AUC at 6 h (in vivo) [µM·h] | Effect on U87-MG cell viability (U87-MG cells) | Direct action on PLD2 in biochemical assay (PLD2) | Invasive migration in U87-MG cells [1] | Dose at which decrease in invasive migration reached statistical significance ([1]; U87-MG cells) [µM] | Human CLHEP [mL/min/kg] | Concentration up to which PLD1 is not inhibited (PLD1) [µM] | PLD1 inhibition (PLD1) | Rat CLHEP [2] [mL/min/kg] |
| --- | --- | --- | --- | --- | --- | --- | --- | --- | --- |
| O=C(NCCN1CCC2(CC1)C(=O)NCN2c1cccc(F)c1)c1ccc(F)c(F)c1 [ML298, 3,4-Difluoro-N-(2-(1-(3-fluorophenyl)-4-oxo-1,3,8-triazaspiro[4.5]decan-8yl)ethyl)benzamide] | 1.55 | no effect | acted directly on PLD2 | dose-dependent decrease; also recorded: decreased invasive migration | 10 | 17.8 | > 20 | no inhibition of PLD1 | 60.9 |
| Cc1cccc(N2CNC(=O)C23CCN(C[C@H](C)NC(=O)c2ccc(Br)cc2)CC3)c1 [ML299] |  | no effect |  | dose-dependent decrease; also recorded: decreased invasive migration |  |  |  |  |  |
